Laboratory results as given in patent US20250195590A1, “PHAGE AND ALLICIN COMPOSITION FOR INFECTION TREATMENT” (GUANGZHOU MEDICAL UNIVERSITY, priority 2023, published 2025).
Values after ≈ are worked out from the molar mass of the structure shown.

Legend:
[1] = test system: Pseudomonas aeruginosa host bacteria; assay: Drug resistance of host bacteria; assay type: cell-based
[2] = test system: Pseudomonas aeruginosa; assay: Measurement of the minimum inhibitory concentration (micro broth dilution method); assay type: cell-based; details: allicin alone, preliminary experiment, FIG. 1
Experimental: (§1) The allicin is diluted to 7.5 mg/mL, 3.75 mg/mL, 0.375 mg/mL, 0.0375 mg/mL, 0.00375 mg/mL and 0.000375 mg/mL respectively, and the phage is diluted to 3×10^4 pfu/mL, 3×10^3 pfu/mL, 3×10^2 pfu/ml, and 3×10^1 pfu/ml respectively, and the host bacteria are diluted to 3×10^5 cfu/mL; allicin, phage, and host bacteria are aspirated 50 μL each and added into each well of the 96-well plate, then the OD600 value is measured, the OD600 value is measured again after overnight shaker incubation at 37° C. and 220 rpm, and the absorbance change value is calculated to determine the inhibition effect on the bacteria.
After the experiment, the experimental results are shown in FIG. 2, and the MIC of phage is 1×10^3 pfu/mL.

[3] = test system: Pseudomonas aeruginosa; assay: Bacteriostasis effect of phage in combination with allicin (combination experiment, OD600, FIC index); assay type: cell-based
Experimental: as §1
In the combination experiment, the bacteriostatic effect of allicin in different concentrations (i.e. allicin alone) is calculated and analyzed when the phage concentration is 0 pfu/mL.
In the combination experiment, the bacteriostatic effect of phages with different concentrations (that is, phages alone) is calculated and analyzed when the concentration of allicin is 0 μg/mL.
Different concentrations of allicin and phage are mixed in a 96-well plate by broth dilution method, and the OD600 value is measured. After overnight shaking table culture at 37° C. and 220 rpm, the OD600 value is measured again, and the chart is drawn.
Judging the combination effect according to the fractional inhibitory concentration (FIC) index^[6]: FIC=MIC (in combination with group A)/MIC (group A used alone)+MIC (in combination with group B)/MIC (group B used alone).
FIC index interpretation criteria: when the FIC index is less than 0.5, the two drugs are synergistic; when the FIC index is 0.5-1, the two drugs are mutually additive; when the FIC index is greater than 1 and less than 2, the two drugs are unrelated; when the FIC index is greater than 2, the two drugs are antagonistic.

[4] = test system: Pseudomonas aeruginosa phage vB_PaeP_GZMU_A1002; assay: Effect of allicin on phage potency; details: incubated 37° C. 3 h, paired sample T test, 0.05 level, FIG. 3
Experimental: The solution of Pseudomonas aeruginosa phage vB_PaeP_GZMU_A1002 is diluted to a certain extent, and 100 μL of the diluted phage is mixed with 100 μL of the host bacteria and incubated at 37° C. for 15 min. The incubation solution is mixed with 0.7% semisolid LB agar, spread evenly on top of 1.5% solid LB agar spread on a Petri dish in advance, and cultured in a constant temperature incubator at 37° C. for 8 h or overnight. After the culture, a number of light-transmitting plaques may be seen in the Petri dish. A number of light-transmissive phage spots are visible in the petri dish after incubation, and the optimal view is selected to have 30-300 phage spots in the field of view, and the potency is calculated as potency=(10×number of phage spots)/dilution.
The Pseudomonas aeruginosa phage vB_PaeP_GZMU_A1002 is diluted to 10-8, and 100 μL of phage is mixed with 100 μL of allicin. At the same time, 100 μL of phage is mixed with 100 μL of LB as the control group, which is repeated in parallel for three times, mixed and incubated at 37° C. for 3 h, and then the potency is measured.
In this embodiment, paired sample T test is used to determine whether allicin has an effect on phage titer.

For `CO/N=C(\C(=O)N[C@@H]1C(=O)N2C(C(=O)[O-])=C(C[N+]3(C)CCCC3)CS[C@H]12)c1csc(N)n1` [Cefepime], the “Drug resistance of host bacteria” value ([1]; strain B- P. aeruginosa-029) was “Resistant”, the “Drug resistance of host bacteria” value ([1]; strain P. aeruginosa-2 (r74)) was “Resistant” and the “Drug resistance of host bacteria” value ([1]; strain P. aeruginosa-24) was “Resistant”. For the same compound, the “Drug resistance of host bacteria” value ([1]; strain P. aeruginosa-30) was “Resistant” and the “Drug resistance of host bacteria” value ([1]; strain P. aeruginosa′-5) was “Resistant”.

In the case of `C=CCS[S+]([O-])CC=C` (centres unmarked) [allicin], the MIC [2] is reported as 1250 µg/mL (≈ 7.7 mM), the MIC ([3]; Pseudomonas aeruginosa, combination experiment, phage concentration 0 pfu/mL, FIG. 4, read-out: MIC of allicin alone) is reported as 1250 µg/mL and the OD600 ([3]; allicin alone 1.25 mg/mL, FIG. 4) is reported as “about 0”. For the same compound, the “decrease of amount when used in combination as compared to singly” value ([3]; allicin with phage) was “three orders of magnitude”, the “best combination dosage, allicin” value ([3]; in combination with 1×10^2 pfu/mL phage, FIG. 6) was 1.25 µg/mL and the “optimal concentration for combination, allicin” value ([3]; with 1×10^2 pfu/mL phage, FIG. 6) was 1/1000. For the same compound, the “effect of allicin on phage potency (titer)” value [4] was “no negative effect”.

For Piperacillin/Tazobactam, the “Drug resistance of host bacteria” value ([1]; strain B- P. aeruginosa-029) was “Resistant”, the “Drug resistance of host bacteria” value ([1]; strain B- P. aeruginosa-037) was “Resistant” and the “Drug resistance of host bacteria” value ([1]; strain P. aeruginosa-2 (r74)) was “Resistant”. The “Drug resistance of host bacteria” value ([1]; strain P. aeruginosa-14) was “Resistant”, the “Drug resistance of host bacteria” value ([1]; strain P. aeruginosa-23) was “Resistant” and the “Drug resistance of host bacteria” value ([1]; strain P. aeruginosa-26) was “Resistant”. The “Drug resistance of host bacteria” value ([1]; strain P. aeruginosa-30) was “Resistant”, the “Drug resistance of host bacteria” value ([1]; strain P. aeruginosa-32) was “Resistant” and the “Drug resistance of host bacteria” value ([1]; strain P. aeruginosa′-3) was “Resistant”. The “Drug resistance of host bacteria” value ([1]; strain P. aeruginosa′-4) was “Resistant”, the “Drug resistance of host bacteria” value ([1]; strain P. aeruginosa′-5) was “Resistant” and the “Drug resistance of host bacteria” value ([1]; strain P. aeruginosa′-6) was “Resistant”. The “Drug resistance of host bacteria” value ([1]; strain P. aeruginosa′-15) was “Resistant”.

In the case of `NC[C@H]1O[C@H](O[C@H]2[C@H](O)[C@@H](O[C@H]3O[C@H](CO)[C@@H](O)[C@H](N)[C@H]3O)[C@H](N)C[C@@H]2N)[C@H](N)C[C@@H]1O` [Tobramycin], the “Drug resistance of host bacteria” value ([1]; strain P. aeruginosa-29) is reported as “Resistant”.

In the case of `O=C(O)c1cn(C2CC2)c2cc(N3CCNCC3)c(F)cc2c1=O` [Ciprofloxacin], the “Drug resistance of host bacteria” value ([1]; strain B- P. aeruginosa-029) is reported as “Resistant”, the “Drug resistance of host bacteria” value ([1]; strain B- P. aeruginosa-035) is reported as “Resistant” and the “Drug resistance of host bacteria” value ([1]; strain B- P. aeruginosa-037) is reported as “Resistant”. For the same compound, the “Drug resistance of host bacteria” value ([1]; strain B- P. aeruginosa-041) was “Resistant”, the “Drug resistance of host bacteria” value ([1]; strain B- P. aeruginosa-042) was “Resistant” and the “Drug resistance of host bacteria” value ([1]; strain B-P. AERUGINOSA-027) was “Resistant”. For the same compound, the “Drug resistance of host bacteria” value ([1]; strain P. aeruginosa-25) was “Resistant” and the “Drug resistance of host bacteria” value ([1]; strain P. aeruginosa-29) was “Resistant”.

With `C[C@H]1[C@H](NC(=O)/C(=N\OC(C)(C)C(=O)O)c2csc(N)n2)C(=O)N1S(=O)(=O)O` [Aztreonam] the “Drug resistance of host bacteria” value ([1]; strain B- P. aeruginosa-029) was “Resistant”, the “Drug resistance of host bacteria” value ([1]; strain B- P. aeruginosa-037) was “Resistant” and the “Drug resistance of host bacteria” value ([1]; strain P. aeruginosa-2 (r74)) was “Resistant”. For the same compound, the “Drug resistance of host bacteria” value ([1]; strain P. aeruginosa-4) was “Resistant”, the “Drug resistance of host bacteria” value ([1]; strain P. aeruginosa-13) was “Resistant” and the “Drug resistance of host bacteria” value ([1]; strain P. aeruginosa-14) was “Resistant”. For the same compound, the “Drug resistance of host bacteria” value ([1]; strain P. aeruginosa-22) was “Resistant”, the “Drug resistance of host bacteria” value ([1]; strain P. aeruginosa-25) was “Resistant” and the “Drug resistance of host bacteria” value ([1]; strain P. aeruginosa-26) was “Resistant”. The “Drug resistance of host bacteria” value ([1]; strain P. aeruginosa-27) was “Resistant”, the “Drug resistance of host bacteria” value ([1]; strain P. aeruginosa-30) was “Resistant” and the “Drug resistance of host bacteria” value ([1]; strain P. aeruginosa′-3) was “Resistant”. The “Drug resistance of host bacteria” value ([1]; strain P. aeruginosa′-4) was “Resistant”, the “Drug resistance of host bacteria” value ([1]; strain P. aeruginosa′-5) was “Resistant” and the “Drug resistance of host bacteria” value ([1]; strain P. aeruginosa′-10) was “Resistant”.

With `NCC[C@H](O)C(=O)N[C@@H]1C[C@H](N)[C@@H](O[C@H]2O[C@H](CN)[C@@H](O)[C@H](O)[C@H]2O)[C@H](O)[C@H]1O[C@H]1O[C@H](CO)[C@@H](O)[C@H](N)[C@H]1O` [Amikacin] the “Drug resistance of host bacteria” value ([1]; strain P. aeruginosa′-5) was “Resistant”.
